Columns and labels:
Assay type in all cases: in vivo
Chenopodium [1] = assay: Post-emergence herbicidal action; details: 250 g/ha; 4- to 6-leaf stage; after about 18 days; rating 10=total damage, 0=no action
Method: (§1) In a greenhouse, monocotyledonous and dicotyledonous test plants are grown in standard soil in plastic pots and at the 4- to 6-leaf stage are sprayed with an aqueous suspension of the test compounds of formula I prepared from a 25% wettable powder (Example F3, b) according to WO 97/34485) or with an emulsion of the test compounds of formula I prepared from a 25% emulsifiable concentrate (Example F1, c) according to WO 97/34485), in a concentration corresponding to 125 g or 250 g of active ingredient/ha (500 liter of water/ha). The test plants are then grown on in a greenhouse under optimum conditions. After a test duration of about 18 days, the test is evaluated in accordance with a scale of ten ratings (10=total damage, 0=no action). Ratings of from 10 to 7 (especially from 10 to 8) indicate good to very good herbicidal action.

Stellaria [2] = assay: Post-emergence herbicidal action; details: 250 g/ha; 4- to 6-leaf stage; after about 18 days; rating 10=total damage, 0=no action
Method: as §1

Ipomea = assay: Post-emergence herbicidal action; details: 250 g/ha; 4- to 6-leaf stage; after about 18 days; rating 10=total damage, 0=no action
Method: as §1

Panicum [3] = assay: Post-emergence herbicidal action; details: 250 g/ha; 4- to 6-leaf stage; after about 18 days; rating 10=total damage, 0=no action
Method: as §1

Digitaria [4] = assay: Post-emergence herbicidal action; details: 250 g/ha; 4- to 6-leaf stage; after about 18 days; rating 10=total damage, 0=no action
Method: as §1

Abutilon [5] = assay: Post-emergence herbicidal action; details: 250 g/ha; 4- to 6-leaf stage; after about 18 days; rating 10=total damage, 0=no action
Method: as §1

Setaria [6] = assay: Post-emergence herbicidal action; details: 250 g/ha; 4- to 6-leaf stage; after about 18 days; rating 10=total damage, 0=no action
Method: as §1

Sinapis = assay: Post-emergence herbicidal action; details: 250 g/ha; 4- to 6-leaf stage; after about 18 days; rating 10=total damage, 0=no action
Method: as §1

Chenopodium [7] = assay: Pre-emergence herbicidal action; details: 250 g/ha; after 3 weeks; rating 10=total damage, 0=no action
Method: (§2) Monocotyledonous and dicotyledonous test plants are sown in standard soil in plastic pots. Immediately after sowing, the test compounds, in the form of an aqueous suspension (prepared from a 25% wettable powder (Example F3, b) according to WO 97/34485) or in the form of an emulsion (prepared from a 25% emulsifiable concentrate (Example F1, c)), are applied by spraying a concentration corresponding to 125 g or 250 g of active ingredient/ha (500 liter of water/ha). The test plants are then grown in a greenhouse under optimum conditions. After a test duration of 3 weeks, the test is evaluated in accordance with a scale of ten ratings (10=total damage, 0=no action). Ratings of from 10 to 7 (especially from 10 to 8) indicate good to very good herbicidal action.

Stellaria [8] = assay: Pre-emergence herbicidal action; details: 250 g/ha; after 3 weeks; rating 10=total damage, 0=no action
Method: as §2

Echinochloa = assay: Pre-emergence herbicidal action; details: rating 10=total damage, 0=no action; for Pre-emergence herbicidal action: Echinochloa: 250 g/ha, after 3 weeks; for Pre-emergent Herbicidal Activity: Echinochloa: Table B3
Method: (§3) Monocotyledonous and dicotyledonous test plants are sown in standard soil in plastic pots. […] The test plants are then grown in a greenhouse under optimum conditions. After a test duration of 3 weeks, the test is evaluated in accordance with a scale of ten ratings (10=total damage, 0=no action). Ratings of from 10 to 7 (especially from 10 to 8) indicate good to very good herbicidal action.

Amaranthus = assay: Pre-emergence herbicidal action; details: rating 10=total damage, 0=no action; for Pre-emergence herbicidal action: Amaranthus: 250 g/ha, after 3 weeks; for Pre-emergent Herbicidal Activity: Amaranthus: Table B3
Method: as §3

Panicum [9] = assay: Pre-emergence herbicidal action; details: 250 g/ha; after 3 weeks; rating 10=total damage, 0=no action
Method: as §3

Digitaria [10] = assay: Pre-emergence herbicidal action; details: 250 g/ha; after 3 weeks; rating 10=total damage, 0=no action
Method: as §3

Abutilon [11] = assay: Pre-emergence herbicidal action; details: rating 10=total damage, 0=no action; for Pre-emergence herbicidal action: Abutilon: 250 g/ha, after 3 weeks; for Pre-emergent Herbicidal Activity: Abutilon: Table B3
Method: as §3

Corn = assay: Pre-emergent herbicidal activity on crop plant; details: for Pre-emergent Herbicidal Activity: Corn: Table B3, crop plant, rating 10=total damage, 0=no action
Method: as §3
(§4) In the following Table B3, the pre-emergent herbicidal activity of compound H-14 according to the invention is compared with 4 compounds according to the prior art. All compounds are structurally identical except for the nature of the alkylene linker attached to the pyridine ring.

Soya = assay: Pre-emergent herbicidal activity on crop plant; details: for Pre-emergent Herbicidal Activity: Soya: Table B3, crop plant, rating 10=total damage, 0=no action
Method: as §3, §4

Brachiaria = assay: Pre-emergent herbicidal activity; details: Table B3, rating 10=total damage, 0=no action
Method: as §3, §4

Setaria [12] = assay: Pre-emergent herbicidal activity; details: Table B3, rating 10=total damage, 0=no action
Method: as §3, §4

[13] = pre-emergent, 30 and 15 g/ha, result in words on Table B3

| Structure (SMILES) | Post-emergence herbicidal action: Chenopodium (Chenopodium [1]) | Post-emergence herbicidal action: Stellaria (Stellaria [2]) | Post-emergence herbicidal action: Ipomea (Ipomea) | Post-emergence herbicidal action: Panicum (Panicum [3]) | Post-emergence herbicidal action: Digitaria (Digitaria [4]) | Post-emergence herbicidal action: Abutilon (Abutilon [5]) | Post-emergence herbicidal action: Setaria (Setaria [6]) | Post-emergence herbicidal action: Sinapis (Sinapis) | Pre-emergence herbicidal action: Chenopodium (Chenopodium [7]) | Pre-emergence herbicidal action: Stellaria (Stellaria [8]) | Pre-emergence herbicidal action: Echinochloa (Echinochloa) | Pre-emergence herbicidal action: Amaranthus (Amaranthus) | Pre-emergence herbicidal action: Panicum (Panicum [9]) | Pre-emergence herbicidal action: Digitaria (Digitaria [10]) | Pre-emergence herbicidal action: Abutilon (Abutilon [11]) | Pre-emergent Herbicidal Activity: Corn (Corn; 15 g/ha) | Pre-emergent Herbicidal Activity: Corn (Corn; 30 g/ha) | Pre-emergent Herbicidal Activity: Soya (Soya; 15 g/ha) | Pre-emergent Herbicidal Activity: Soya (Soya; 30 g/ha) | Pre-emergent Herbicidal Activity: Brachiaria (Brachiaria; 15 g/ha) | other results |
| --- | --- | --- | --- | --- | --- | --- | --- | --- | --- | --- | --- | --- | --- | --- | --- | --- | --- | --- | --- | --- | --- |
| COCCCc1nc(C(F)F)ccc1C(=O)C1C(=O)C2CCC(C)(C2)C1=O (stereo not drawn) [Compound H-1] | 8 | 8 | 9 | 9 | 9 | 9 | 8 | 8 | 10 | 7 | 9 | 9 | 9 | 9 | 9 | – | – | – | – | – | – |
| CCOCCCc1nc(C(F)(F)F)ccc1C(=O)C1C(=O)C2CCC(C2)C1=O (stereo not drawn) [Compound H-15] | 10 | 9 | 8 | 9 | 8 | 9 | 8 | 9 | 10 | 10 | 10 | 10 | 10 | 9 | 10 | – | – | – | – | – | – |
| CCC12CCC(C1)C(=O)C(C(=O)c1ccc(C(F)(F)F)nc1CCCOC)C2=O (stereo not drawn) [Compound H-17] | 8 | 9 | 7 | 8 | 7 | 9 | 8 | 9 | – | – | – | – | – | – | – | – | – | – | – | – | – |
| COCc1nc(C(F)(F)F)ccc1C(=O)C1C(=O)C2CCC(C2)C1=O (stereo not drawn) [B] | – | – | – | – | – | – | – | – | – | – | – | – | – | – | – | 1 | 1 | 6 | 8 | 6 | Pre-emergent Herbicidal Activity: Brachiaria (Brachiaria; 30 g/ha): 9; Pre-emergent Herbicidal Activity: Setaria (Setaria [12]; 15 g/ha): 8; Pre-emergent Herbicidal Activity: Setaria (Setaria [12]; 30 g/ha): 9; Pre-emergent Herbicidal Activity: Echinochloa (Echinochloa; 15 g/ha): 9; Pre-emergent Herbicidal Activity: Echinochloa (Echinochloa; 30 g/ha): 10; Pre-emergent Herbicidal Activity: Amaranthus (Amaranthus; 15 g/ha): 6; Pre-emergent Herbicidal Activity: Amaranthus (Amaranthus; 30 g/ha): 8; Pre-emergent Herbicidal Activity: Abutilon (Abutilon [11]; 15 g/ha): 8; Pre-emergent Herbicidal Activity: Abutilon (Abutilon [11]; 30 g/ha): 9 |
| COCCCc1nc(C(F)(F)F)ccc1C(=O)C1C(=O)C2CCCC(C2)C1=O (stereo not drawn) [Compound H-19] | 9 | 8 | 8 | 8 | 9 | 8 | 8 | 9 | – | – | – | – | – | – | – | – | – | – | – | – | – |
| COCCCc1nc(C(F)(F)F)ccc1C(=O)C1C(=O)C2CCC(C)(C2)C1=O (stereo not drawn) [Compound H-16] | 10 | 10 | 9 | 10 | 9 | 9 | 10 | 10 | 9 | 8 | 10 | 8 | 10 | 10 | 10 | – | – | – | – | – | – |
| COCCCCc1nc(C(F)(F)F)ccc1C(=O)C1C(=O)C2CCC(C2)C1=O (stereo not drawn) [Compound F] | – | – | – | – | – | – | – | – | – | – | – | – | – | – | – | 0 | 0 | 0 | 0 | 0 | phytotoxic effect on the crop plants (corn) (Corn; [13]): no phytotoxic effect; phytotoxic effect on the crop plants (soya) (Soya; [13]): no phytotoxic effect; Pre-emergent Herbicidal Activity: Brachiaria (Brachiaria; 30 g/ha): 6; Pre-emergent Herbicidal Activity: Setaria (Setaria [12]; 30 g/ha): 6; Pre-emergent Herbicidal Activity: Echinochloa (Echinochloa; 30 g/ha): 7; Pre-emergent Herbicidal Activity: Amaranthus (Amaranthus; 15 g/ha): 7; Pre-emergent Herbicidal Activity: Amaranthus (Amaranthus; 30 g/ha): 7; Pre-emergent Herbicidal Activity: Abutilon (Abutilon [11]; 15 g/ha): 8; Pre-emergent Herbicidal Activity: Abutilon (Abutilon [11]; 30 g/ha): 8 |
| COC/C=C\c1nc(C(F)(F)F)ccc1C(=O)C1C(=O)C2CCC(C2)C1=O (stereo not drawn) [C] | – | – | – | – | – | – | – | – | – | – | – | – | – | – | – | 0 | 0 | 0 | 0 | 0 | Pre-emergent Herbicidal Activity: Brachiaria (Brachiaria; 30 g/ha): 0; Pre-emergent Herbicidal Activity: Setaria (Setaria [12]; 15 g/ha): 2; Pre-emergent Herbicidal Activity: Setaria (Setaria [12]; 30 g/ha): 2; Pre-emergent Herbicidal Activity: Echinochloa (Echinochloa; 15 g/ha): 3; Pre-emergent Herbicidal Activity: Echinochloa (Echinochloa; 30 g/ha): 3; Pre-emergent Herbicidal Activity: Amaranthus (Amaranthus; 15 g/ha): 3; Pre-emergent Herbicidal Activity: Amaranthus (Amaranthus; 30 g/ha): 5; Pre-emergent Herbicidal Activity: Abutilon (Abutilon [11]; 15 g/ha): 3; Pre-emergent Herbicidal Activity: Abutilon (Abutilon [11]; 30 g/ha): 4 |
| COCCCc1nc(C(F)F)ccc1C(=O)C1C(=O)C2CCCC(C2)C1=O (stereo not drawn) [Compound H-21] | 9 | 8 | 8 | 9 | 9 | 8 | 8 | 9 | 10 | 10 | 9 | 7 | 10 | 10 | 7 | – | – | – | – | – | – |
| COCCc1nc(C(F)(F)F)ccc1C(=O)C1C(=O)C2CCC(C2)C1=O (stereo not drawn) [A] | – | – | – | – | – | – | – | – | – | – | – | – | – | – | – | 0 | 0 | 2 | 5 | 6 | Pre-emergent Herbicidal Activity: Brachiaria (Brachiaria; 30 g/ha): 7; Pre-emergent Herbicidal Activity: Setaria (Setaria [12]; 15 g/ha): 6; Pre-emergent Herbicidal Activity: Setaria (Setaria [12]; 30 g/ha): 7; Pre-emergent Herbicidal Activity: Echinochloa (Echinochloa; 15 g/ha): 4; Pre-emergent Herbicidal Activity: Echinochloa (Echinochloa; 30 g/ha): 9; Pre-emergent Herbicidal Activity: Amaranthus (Amaranthus; 15 g/ha): 7; Pre-emergent Herbicidal Activity: Amaranthus (Amaranthus; 30 g/ha): 7; Pre-emergent Herbicidal Activity: Abutilon (Abutilon [11]; 15 g/ha): 9; Pre-emergent Herbicidal Activity: Abutilon (Abutilon [11]; 30 g/ha): 9 |
| COCCCc1nc(C(F)F)ccc1C(=O)C1C(=O)C2CCC(CC2)C1=O (stereo not drawn) [Compound H-4] | 7 | 8 | 7 | 9 | 9 | 8 | 7 | 9 | 9 | 7 | 9 | 9 | 9 | 9 | 9 | – | – | – | – | – | – |

— patent publication US7745495B2, “Pyridine ketones with herbicidal effect” (Syngenta Crop Protection, Inc., priority 2004, dated 2010)
